Assay results published in US9850273B2, “Combination of estrogens plus antiprogestins with significant partial agonistic effect as an effective treatment of menopausal symptoms and for prevention of the occurrence of breast cancer” (Evestra, Inc., priority 2014, dated 2017).
pEC50, pIC50: −log10 of the molar value. Where two headings read alike, the source gives them in different places.

Assays:
[1] = tested on: ovariectomized C57BL/6 mice; assay: Uterine weight bioassay in ovariectomized mice; assay type: in vivo, mouse; details: combined with E2, 4 weeks
Method: (§1) In order to determine the in vivo estrogenic action of EC313 in uterine weight and benign breast development, we have used standard uterine weight bioassay and mammary gland whole mount analysis in ovariectomized mice. […] Five different measurements were obtained from each whole-mount image. Ductal length (millimeters) was measured by drawing and measuring a straight line caliper from the most distal point of the ductal network to the nipple and end buds were identified as large bulbous profiles located at the termini of ducts. […] The reduced estrogenic effect by the treatment of EC313 was further confirmed by the gene expression studies.
(§2) Whole mounts of mammary glands of overictomized C57BL/6 mice treated with E2, EC313 0.1 and 1.0 mg/kg. Magnification—upper panel—10×, lower panel—20×. B, Uterine weight of mice treated for 4 weeks with E2, EC313 0.1 and 1.0 mg/kg. Data represented are average uterine weight in milligrams±SD (*P<0.001 vs E2-control). C-D, Total duct length and terminal end bud counts in the mammary gland whole mounts after 4 weeks of the treatment with test compounds (*P<0.001 vs E2-control).

guinea pig [2] = details: in vivo; cited from earlier work
[3] = tested on: ovariectomized C57BL/6 mice; assay: Gene expression in mammary glands of ovariectomized mice; assay type: in vivo, mouse
Method: as §1
Gene expression in mammary glands of ovariectomized C57BL/6 mice treated with E2, EC313 0.1 and 1.0 mg/kg. Columns are average of relative amount (ΔΔCt) of tested mRNA±SD (n=6) (**P<0.01 vs E2-control, *P<0.001 vs E2-control).

[4] = tested on: estradiol-primed immature female rabbits; assay: McPhail and anti-McPhail tests in rabbits; assay type: in vivo, rabbit
Excerpt: The McPhail test in the immature female rabbit is a well-established model to test progestatational and antiprogestational activity [McPhail 1934).

guinea pig [5] = assay: Guinea pig model (ovulation inhibition, uterine weight, vagina, ovary, classification); assay type: in vivo
progesterone receptor [6] = molecular target: T1, progesterone receptor (Homo sapiens, UniProt P06401); assay: PR transactivation assay, agonistic activity (PR luciferase reporter); assay type: cell-based; details: T47D cells
T1 sequence (P06401 679-933 limits assumed): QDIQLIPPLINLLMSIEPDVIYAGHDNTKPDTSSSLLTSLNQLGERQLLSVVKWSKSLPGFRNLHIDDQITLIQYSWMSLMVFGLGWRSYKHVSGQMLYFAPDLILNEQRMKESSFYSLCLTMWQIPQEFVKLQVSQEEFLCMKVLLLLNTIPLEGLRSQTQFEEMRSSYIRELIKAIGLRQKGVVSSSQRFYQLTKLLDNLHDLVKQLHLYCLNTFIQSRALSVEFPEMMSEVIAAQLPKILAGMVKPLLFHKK
Method: (§3) Transactivation Assay for Progesterone Agonist and Antagonistic Activity (See Table 1).
(§4) Experimental: PR transactivation studies was carried out in human breast cancer (T47D) cells, grown in RPMI medium without phenol red and 5% charcoal stripped fetal bovine serum, transiently transfected with PR luciferase reporter (CCS-6043L signal reporter assay kit, Qiagen). The cells were stimulated R5020 as PR agonist and treated in the presence or absence of the tested compounds for 24 hours. The effect was calculated using dual luciferase assay kit (Promega, WI)) based on RU486 as full antagonist and R5020 as agonist for progesterone receptor.

[7] = tested on: ovariectomized C57BL/6 mice; assay: Mammary gland whole mount analysis in ovariectomized mice; assay type: in vivo, mouse; details: 0.1 and 1.0 mg/kg with E2, 4 weeks
Method: as §1, §2

progesterone receptor [8] = molecular target: T2, progesterone receptor (Homo sapiens, UniProt P06401); assay: PR transactivation assay, antagonistic activity (PR luciferase reporter); assay type: cell-based
T2 sequence (P06401 165-933 limits assumed): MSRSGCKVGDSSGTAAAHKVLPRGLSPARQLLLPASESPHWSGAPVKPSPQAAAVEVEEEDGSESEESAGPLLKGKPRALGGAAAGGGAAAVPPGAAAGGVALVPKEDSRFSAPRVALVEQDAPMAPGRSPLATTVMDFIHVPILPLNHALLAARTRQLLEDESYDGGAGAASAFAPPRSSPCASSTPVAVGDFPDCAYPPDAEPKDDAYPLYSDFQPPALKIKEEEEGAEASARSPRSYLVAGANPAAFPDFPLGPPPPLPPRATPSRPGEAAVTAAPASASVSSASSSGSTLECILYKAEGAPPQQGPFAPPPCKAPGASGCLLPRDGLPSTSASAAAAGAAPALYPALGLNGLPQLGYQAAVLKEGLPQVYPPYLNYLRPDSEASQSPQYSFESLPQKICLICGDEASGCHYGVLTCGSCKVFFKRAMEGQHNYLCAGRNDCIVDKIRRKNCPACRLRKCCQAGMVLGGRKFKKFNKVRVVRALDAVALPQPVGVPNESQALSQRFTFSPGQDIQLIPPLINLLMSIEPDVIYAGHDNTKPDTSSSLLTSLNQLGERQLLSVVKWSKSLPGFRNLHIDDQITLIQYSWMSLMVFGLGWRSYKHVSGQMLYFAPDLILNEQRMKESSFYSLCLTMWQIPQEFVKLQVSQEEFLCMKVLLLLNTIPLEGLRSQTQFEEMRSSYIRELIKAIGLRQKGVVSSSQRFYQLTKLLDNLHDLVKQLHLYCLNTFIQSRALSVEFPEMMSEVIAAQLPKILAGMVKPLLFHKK
Method: as §3
as §4, with “hours.” for “hours. The effect was calculated using dual luciferase assay kit (Promega, WI)) based on RU486 as full antagonist and R5020 as agonist for progesterone receptor.”

Agonist rel to R5020 (%) (progesterone receptor [6]): 7.8%
pEC50 (progesterone receptor [6]; stimulant R5020, read-out: EC50): 8.32
Ratio of IC50's (progesterone receptor [8]; PR agonism / PR antagonism): 9.4
Antagonist rel to RU486 (%) (progesterone receptor [8]; T47D cells, stimulant R5020): 240%
pIC50 (progesterone receptor [8]; T47D cells, stimulant R5020, read-out: IC50 Average of 2 expts): 9.30
pIC50 (progesterone receptor [8]; Table 2 summary, read-out: PR antagonism (IC50)): 9.30
Structure (SMILES): C[C@]12C[C@H](c3ccc(-c4ccoc4)cc3)C3=C4CCC(=O)C=C4CCC3C1CCC21OCCC1=C(F)F (some centres unmarked) [EC-313]
E2 stimulated uterine weight ([1]; 0.1 mg/kg): reduced by two fold
E2 stimulated uterine weight ([1]; 1.0 mg/kg): three fold
Classification (previous findings, Nickisch et al, 2013) (guinea pig [2]): mesoprogestin
PR regulated genes amphiregulin (AREG) and RANKL in mammary glands ([3]; higher dose): significantly inhibited
PR regulated genes amphiregulin (AREG) and RANKL in mammary glands ([3]; lower doses): upregulated in a moderate fashion
E2 regulated genes cyclin D1 and PS2 in mammary glands ([3]; treatment combined with E2): downregulated
progestational activity (McPhail test) ([4]; estradiol-primed immature female rabbit): active both as a progestin agonist and antagonist
antiprogestational activity (anti-McPhail test) ([4]; immature female rabbit): active both as a progestin agonist and antagonist
ER-/PR balance vagina.: dose at which the dominance is seen (guinea pig [5]; guinea pig): ≧0.1 mg
Classification (guinea pig [5]; guinea pig model): mesoprogestin
Uterine Weight at max. dose (10.mg/day s.c.) (guinea pig [5]; guinea pig, 10 mg/day s.c.): 1.13
ER-/PR balance vagina. (guinea pig [5]; guinea pig, at max. dose (10.mg/day s.c.)): PR-domin.
Ovary (CL) (guinea pig [5]; guinea pig, at max. dose (10.mg/day s.c.), CL = corpora lutea): degenerated
ductal branching and terminal end buds in whole mount analysis [7]: dose dependently reduced
